In US6706702B2, “Aryl fused azapolycyclic compounds” (Pfizer Inc., priority 1998, dated 2004):

| Compound | melting point |
| --- | --- |
| Cl.Fc1ccc2c(c1)CC1CC2CN(Cc2ccccc2)C1 (stereo not shown) | 202 to 203 °C |
| Cl.c1c2c(cc3c1OCO3)C1CNCC(C2)C1 (stereo not shown) | 241 to 243 °C |
| Cl.c1cncc(-c2ccc3c(c2)CC2CNCC3C2)c1 (stereo not shown) | 240 to 242 °C |

The next lines start with the values.

| melting point | Compound |
| --- | --- |
| 230 to 234 °C | Cl.FC(F)Oc1ccc2c(c1)CC1CNCC2C1 (stereo not shown) |
| 215 to 220 °C | Cl.O=[N+]([O-])c1ccc2c(c1)C1CNCC(C2)C1 (stereo not shown) |
| 272 to 274 °C | COc1cccc2c1CC1CNCC2C1.Cl (stereo not shown) |
| 253.5 to 258 °C | COc1ccc2c(c1)CC1CNCC2C1.Cl (stereo not shown) |
